Publication PMC10779248, “Investigation of the Potential of Selected Food-Derived Antioxidants to Bind and Stabilise the Bioactive Blue Protein C-Phycocyanin from Cyanobacteria Spirulina” (International Journal of Molecular Sciences, 2023)

Legend:
Assay type in all cases: binding
Settings in all cases: read-out: Ka (M^-1) (converted)
C-phycocyanin (C-PC) [1] = target: T1, C-phycocyanin (C-PC) (Limnospira platensis, UniProt P72508+P72509); assay: fluorescence quenching titration (PCB emission, excitation […] nm); also near-UV CD, thermal shift of nearly […] °C; set-up: gene cpcA; native C-PC purified from Spirulina biomass, (αβ)3 trimer / (αβ)6 hexamer; with C-phycocyanin beta subunit (cpcB)
Target sequence in this assay (P72509 whole entry): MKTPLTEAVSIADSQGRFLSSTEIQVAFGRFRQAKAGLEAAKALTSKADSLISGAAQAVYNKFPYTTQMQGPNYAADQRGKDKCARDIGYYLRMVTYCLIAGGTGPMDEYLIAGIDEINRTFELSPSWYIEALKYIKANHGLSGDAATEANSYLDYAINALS
Target sequence in this assay (P72508 whole entry): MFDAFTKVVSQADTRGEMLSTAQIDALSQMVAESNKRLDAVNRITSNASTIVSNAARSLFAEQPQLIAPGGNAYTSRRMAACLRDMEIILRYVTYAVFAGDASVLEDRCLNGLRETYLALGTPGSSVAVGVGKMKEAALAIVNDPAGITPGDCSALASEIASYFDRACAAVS

C-phycocyanin (C-PC) [2] = target: T1, C-phycocyanin (C-PC); assay: fluorescence quenching titration (PCB emission, excitation […] nm); also UV-VIS, near-UV CD, thermal shift of nearly […] °C; set-up: gene cpcB; native C-PC purified from Spirulina biomass, (αβ)3 trimer / (αβ)6 hexamer; with C-phycocyanin alpha subunit (cpcA)
Target sequence in this assay (P72508 whole entry): as above
Target sequence in this assay (P72509 whole entry): as the sequence (P72509 whole entry) above

C-phycocyanin (C-PC) [3] = target: T1, C-phycocyanin (C-PC); assay: fluorescence quenching titration (PCB emission, excitation […] nm); also UV-VIS and near-UV CD; no change in Tm; set-up: gene cpcB; native C-PC purified from Spirulina biomass, (αβ)3 trimer / (αβ)6 hexamer; with C-phycocyanin alpha subunit (cpcA)
Target sequence in this assay (P72508 whole entry): as the sequence (P72508 whole entry) above
Target sequence in this assay (P72509 whole entry): as the sequence (P72509 whole entry) above

SMILES: COC1=C(OC)C(=O)C(C/C=C(\C)CC/C=C(\C)CC/C=C(\C)CC/C=C(\C)CC/C=C(\C)CC/C=C(\C)CC/C=C(\C)CC/C=C(\C)CC/C=C(\C)CCC=C(C)C)=C(C)C1=O [coenzyme Q10]
- Kd (C-phycocyanin (C-PC) [1]): 2940 nM

SMILES: O=c1c(O)c(-c2ccc(O)c(O)c2)oc2cc(O)cc(O)c12 [quercetin]
- Kd (C-phycocyanin (C-PC) [2]): 2700 nM

SMILES: Oc1ccc(/C=C/c2cc(O)cc(O)c2)cc1 [resveratrol]
- Kd (C-phycocyanin (C-PC) [3]): 4550 nM
